In patent US20030083483A1, “Molecular interaction sites of vimentin RNA and methods of modulating the same” (priority 1999, published 2003):
Values after ≈ are worked out from the molar mass of the structure shown.

What was measured:
luciferase mRNA = experiment: wheat germ lysate translation of luciferase mRNA; type: biochemical; details: mRNA without TAR structure
Source text: It is believed that stabilization of mRNA structures near the 5′-cap also could be effected by specific “small” molecules, and that such binding would reduce the translational efficiency of the mRNA. To test this hypothesis, a plasmid was constructed containing the luciferase message behind a 5′-UTR containing a 27-mer RNA construct of the HIV TAR stem-loop bulge whose structure had been determined by NMR.

[1] = molecular target: luciferase mRNA containing the TAR RNA structure in the 5′-UTR; experiment: wheat germ lysate translation of luciferase mRNA with TAR in the 5′-UTR; type: biochemical, HIV; details: read-out: concentration reducing translation by 50%
Source text: It is believed that stabilization of mRNA structures near the 5′-cap also could be effected by specific “small” molecules, and that such binding would reduce the translational efficiency of the mRNA. To test this hypothesis, a plasmid was constructed containing the luciferase message behind a 5′-UTR containing a 27-mer RNA construct of the HIV TAR stem-loop bulge whose structure had been determined by NMR. The resulting mRNA could be expressed and capped in a wheat germ lysate translation system supplemented with T7 polymerase following addition of m^7G to the lysate. Insertion of a 9-base leader before the TAR structure (HIVluc+9) enhanced the translational efficiency, presumably by allowing the pre-initiation complex to form. The helicase activity associated with the pre-initiation complex can transiently melt out the TAR RNA structure, and the message is translated.

[2] = system: TAR RNA interaction with tat peptide; experiment: disruption of TAR RNA interaction with tat peptide; type: binding, HIV-1
E. coli = experiment: high throughput screening assay for antibacterial activity; type: cell-based; details: Escherichia coli; against E. coli; crude compounds, identical activity with analytically pure material; read-out: minimum inhibitory concentrations (MIC's)
Source text: This activity was verified by manual solution synthesis of analytically pure material as described in Example 6 above, which had identical activity.

[3] = system: 27-mer model RNA sequence of the 16S A-site; experiment: MASS mass spectrometry binding assay with 16S A-site 27-mer RNA; parameters: species or system prokaryotic; details: for complexes detected with the 16S A site 27mer RNA: ESI-FTICR, mixture of five aminoglycosides, 16S and 18S targets simultaneously
Protocol: The compounds are screened for binding affinity using MASS or conventional high-throughput functional screens. The best scoring compounds from docking a 256-member library against the 16S A-site ribosomal RNA structure are shown in the table 5 below. The MASS assay was performed with the 27-mer model RNA sequence of the 16S A-site whose NMR structure has been determined. The transcription/translation assay was based on expression of a luciferase plasmid.
A preferred first step of MASS screening involves mixing the RNA target (or targets) with a combinatorial library of ligands designed to bind to a specific site on the target molecule(s). Specific noncovalent complexes formed in solution between the target(s) and any library members are transferred into the gas phase and ionized by ESI. As described herein, from the measured mass difference between the complex and the free target, the identity of the binding ligand can be determined. The dissociation constant of the complex can be determined in two ways: if a ligand with a known binding affinity for the target is available, a relative Kd can be measured by using the known ligand as an internal control and measuring the abundance of the unknown complex to the abundance of the control, alternatively, if no internal control is available, Kd's can be determined by making a series of measurements at different ligand concentrations and deriving a Kd value from the “titration” curve.
In a direct determination of solution phase dissociation constants (Kd's) by mass spectrometry, ESI-MS measurements of a solution containing a fixed concentration of RNA at different concentrations of ligand were obtained. By measuring the ratio of bound:unbound RNA at varying ligand concentrations, the Kd was determined by 1/slope of the “titration curve”. The MS derived value of 110 nM is in good agreement with previously reported literature value of 200 nM.
All mass spectrometry experiments were performed using an Apex II 70e electrospray ionization Fourier transform ion cyclotron resonance mass spectrometer (Bruker Daltonics, Billerica) employing an actively shielded 7 tesla superconducting magnet. RNA solutions were prepared in 50 mM NH4OAc (pH 7), mixed 1:1 v:v with isopropanol to aid desolvation, and infused at a rate of […] using a syringe pump. Ions were formed in a modified electrospray source (Analytica, Branford) employing an off axis, grounded electrospray probe positioned ca. 1.5 cm from the metalized terminus of the glass desolvation capillary biased at 5000 V. A counter-current flow of dry […] gas heated to 225C was employed to assist in the desolvation process. Ions were accumulated in an external ion reservoir comprised of an RF-only hexapole, a skimmer cone, and an auxiliary electrode for 1000 ms prior to transfer into the trapped ion cell for mass analysis. Each spectrum was the result of the coaddition of 16 transients comprised of […] acquired over a 90,909 kHz bandwidth resulting in a 700 ms detection interval. All aspects of pulse sequence control, data acquisition, and post acquisition processing were performed using a Bruker Daltonics datastation running XMASS version 4.0 on a Silicon Graphics (San Jose, Calif.) R5000 computer.
Mass spectrometry experiments were performed in order to detect complex formation between a library containing five aminoglycosides (Sisomicin (Sis), Tobramycin (Tob), Bekanomycin (Bek), Paromomycin (PM), and Livodomycin (LV)) and two RNA targets simultaneously. Signals from the (M-5H+)^5− charge states of free 16S and 18S RNAs are detected at m/z 1801.515 and 1868.338, respectively. The mass spectrometric assay reproduces the known solution binding properties of aminoglycosides to the 16S A site model and an 18S A site model with a neutral mass linker. Consistent with the higher binding affinity of theses aminoglycosides for the 16S A-site relative to the 18S A-site, aminoglycoside complexes are observed only with the 16S rRNA target. […]

18S A site model = experiment: ESI-FTICR mass spectrometric complex detection with 18S A-site model RNA; type: binding, eukaryotic; details: mixture of five aminoglycosides, 16S and 18S targets simultaneously
Protocol: Paromomycin, lividomycin (MW=761.354 Da), sisomicin (MW=447.269 Da), tobramycin (MW=467.2591 Da), and bekanamycin (MW=483.254 Da) were obtained from Sigma (St. Louis, Mo.) and ICN (Costa Mesa, Calif.) and were dissolved to generate 10 mM stock solutions. 2′ methoxy analogs of RNA constructs representing the prokaryotic (16S) rRNA and eukaryotic (18S) rRNA A-site were synthesized in house and precipitated twice from 1 M ammonium acetate following deprotection with ammonia (pH 8.5). The mass-tagged constructs contained an 18-atom mass tag (C12H2509) attached to the 5′-terminus of the RNA oligomer through a phosphodiester linkage.
All mass spectrometry experiments were performed using an Apex II 70e electrospray ionization Fourier transform ion cyclotron resonance mass spectrometer (Bruker Daltonics, Billerica) employing an actively shielded 7 tesla superconducting magnet. […]
Mass spectrometry experiments were performed in order to detect complex formation between a library containing five aminoglycosides (Sisomicin (Sis), Tobramycin (Tob), Bekanomycin (Bek), Paromomycin (PM), and Livodomycin (LV)) and two RNA targets simultaneously. Signals from the (M-5H+)^5− charge states of free 16S and 18S RNAs are detected at m/z 1801.515 and 1868.338, respectively. […]

[4] = general statement; cited from earlier work
[5] = general statement; cited from earlier work; remark: listed apart in the source

CNc1ccc(NCCO)c2c1C(=O)c1ccccc1C2=O [ACD 00001199]
inhibition of translation of the luciferase mRNA (luciferase mRNA): some inhibition of translation at very high concentrations | IC50 [1]: 50 µM | concentration at which binding to TAR RNA disrupts the interaction with tat peptide [2]: 1 µM | IC50 values ([2]; in words, assay not stated, TAR ligands): low

O=C(NO)[C@@H](Cc1ccc2ccccc2c1)NS(=O)(=O)c1ccc2ccccc2c1 [Compound 5-n-ii, (2R)-3-(2-naphthyl)-2-((2-naphthylsulfonyl)Amino)Propanehydroxamic Acid]
MIC (E. coli): 0.7 to 1.5 µM (≈ 0.294 to 0.631 µg/mL)

O=C(NO)[C@@H](Cc1ccc2ccccc2c1)NS(=O)(=O)c1ccc(Br)cc1 [Compound 5-n-vi, (2R)-2-(((4-bromophenyl)Sulfonyl)Amino)-3-(2-naphthyl)Propanehydroxamic Acid]
MIC (E. coli): 3 to 6 µM (≈ 1.35 to 2.7 µg/mL)

NC[C@H]1O[C@H](O[C@H]2[C@H](O)[C@@H](O[C@H]3O[C@H](CO)[C@@H](O)[C@H](N)[C@H]3O)[C@H](N)C[C@@H]2N)[C@H](N)[C@@H](O)[C@@H]1O [bekamycin, bekanamycin]
complexes detected with the 16S A site 27mer RNA [3]: Weaker complexes

NC[C@@H]1O[C@H](O[C@H]2[C@@H](O)[C@H](O[C@@H]3[C@@H](O)[C@H](N)C[C@H](N)[C@H]3O[C@H]3O[C@H](CO)[C@@H](O)C[C@H]3N)O[C@@H]2CO)[C@H](N)[C@@H](O)[C@@H]1O[C@H]1O[C@H](CO)[C@@H](O)[C@H](O)[C@@H]1O [lividomycin]
Kd ([3]; 16S A site 27mer, ESI-MS titration, read-out: KD measured by mass spectrometry): 0.028 µM | complexes detected with the 16S A site 27mer RNA [3]: High affinity complexes | complexes with the 18S A site model (18S A site model): absence

CN[C@@H]1[C@@H](O)[C@@H](O[C@@H]2[C@@H](O)[C@H](O[C@H]3OC(CN)=CC[C@H]3N)[C@@H](N)C[C@H]2N)OC[C@]1(C)O [sisomycin, sisomicin]
complexes detected with the 16S A site 27mer RNA [3]: Weaker complexes

C=C(NC(=O)C(=C)NC(=O)c1csc(C2=N[C@@H]3c4csc(n4)[C@H]4NC(=O)c5csc(n5)[C@H]([C@](C)(O)[C@@H](C)O)NC(=O)[C@H]5CSC(=N5)/C(=C/C)NC(=O)[C@H]([C@@H](C)O)NC(=O)c5csc(n5)[C@]3(CC2)NC(=O)[C@H](C)NC(=O)C(=C)NC(=O)[C@H](C)NC(=O)[C@H]([C@@H](C)CC)N[C@@H]2C=Cc3c([C@H](C)O)cc(nc3[C@H]2O)C(=O)O[C@@H]4C)n1)C(N)=O [thiostrepton]
toxicity [4]: relatively high | solubility [5]: very poor

NC[C@H]1O[C@H](O[C@H]2[C@H](O)[C@@H](O[C@H]3O[C@H](CO)[C@@H](O)[C@H](N)[C@H]3O)[C@H](N)C[C@@H]2N)[C@H](N)C[C@@H]1O [tobramycin]
complexes detected with the 16S A site 27mer RNA [3]: Weaker complexes
